According to patent publication US12129221B2, “Difluoro phenyl amide RIP1 inhibitor” (SIRONAX LTD, priority 2018, dated 2024):
pEC50: −log10 of the molar value.

How the values were obtained:
[1] = Hepatocyte stability, mini-pig; assay type: in vitro ADME; design: key to mini-pig T1/2 (min): +, Extrapolated; conditions: for mini-pig T1/2 (min): extrapolated
Text: (§1) Representative Metabolic Stability Data II, +, Extrapolated.

[2] = Liver microsome stability, rat; assay type: in vitro ADME; conditions: liver microsomes
Text: (§2) Representative Metabolic Stability Data I; +, Extrapolated.

[3] = Hepatocyte stability, human; assay type: in vitro ADME; design: key to Human T1/2 (min): +, Extrapolated; conditions: for Human T1/2 (min): extrapolated; for half-life: human, hepatocytes, read-out: Human T1/2
Text: as §1

[4] = Liver microsome stability, dog; assay type: in vitro ADME; design: key to Dog T1/2 (min): +, Extrapolated; conditions: for half-life: dog, liver microsomes
Text: as §2

ferroptosis = assay: Ferroptosis inhibitor activity; assay type: cell-based; conditions: 1 uM threshold activity extrapolated
Text: Ferroptosis Inhibitor Activity 1 Um Threshold Activity Extrapolated

[5] = Hepatocyte stability, dog; assay type: in vitro ADME; design: key to Dog T1/2 (min): +, Extrapolated; conditions: for Dog T1/2 (min): extrapolated; for half-life: dog, hepatocytes, read-out: Dog T1/2
Text: as §1

PK in rat = assay: PK in rat; design: species or system SD rat; conditions: Sprague-Dawley, in vivo; for bioavailability / half-life: rat
Text: Representative PK Date of Pro-Drug Compounds

[6] = Liver microsome stability, monkey; assay type: in vitro ADME; design: key to Monkey T1/2 (min): +, Extrapolated; conditions: for half-life: monkey, liver microsomes
Text: as §2

necrosis = assay: Necrosis inhibitory activity (cell necrosis / cell viability assay); assay type: cell-based; conditions: Necrosis Inhibitory Activity, given as range; read-out: EC50
Text: Necrosis Inhibitory Activity
Representative IC50 of hRIP1 Kinase Assay Correlated with Our IC50 of Cell Necrosis Assay: […]

[7] = Hepatocyte stability, monkey; assay type: in vitro ADME; design: key to Monkey T1/2 (min): +, Extrapolated; conditions: for Monkey T1/2 (min): extrapolated; for half-life: monkey, hepatocytes, read-out: Monkey T1/2
Text: as §1

[8] = Liver microsome stability, mouse; assay type: in vitro ADME; conditions: liver microsomes
Text: as §2

[9] = Liver microsome stability, human; assay type: in vitro ADME; conditions: liver microsomes, liver microsome stability, read-out: Human T1/2
Text: as §2

[10] = Liver microsome stability, mini-pig; assay type: in vitro ADME; design: key to mini-pig T1/2 (min): +, Extrapolated; conditions: for mini-pig T1/2 (min): extrapolated
Text: as §2

[11] = Hepatocyte stability, mouse; assay type: in vitro ADME; design: key to Mouse T1/2 (min): +, Extrapolated; conditions: for Mouse T1/2 (min): extrapolated; for half-life: mouse, hepatocytes, read-out: Mouse T1/2
Text: as §1

[12] = Hepatocyte stability, rat; assay type: in vitro ADME; design: key to Rat T1/2 (min): +, Extrapolated; conditions: for Rat T1/2 (min): extrapolated; for half-life: rat, hepatocytes, read-out: Rat T1/2
Text: as §1

HT-29 = assay: EC50 in HT-29; assay type: cell-based; conditions: Homo sapiens
PK in monkey = conditions: in vivo
PK in dog = conditions: in vivo
PK in mouse = conditions: in vivo
[13] = liver microsome stability, read-out: Rat T1/2
[14] = liver microsome stability, read-out: Dog T1/2
[15] = po, 10 mg/kg, SD rat, PO 10 mg/kg
[16] = liver microsome stability, read-out: Monkey T1/2
[17] = liver microsome stability, read-out: Mouse T1/2
[18] = po, 60 mg/kg, SD rat, dose 60 mg/Kg micropower
[19] = liver microsome stability, extrapolated
[20] = Hepatocyte Stability, comparison table

[2H]CC([2H])C(C)(C)C(=O)N(O)Cc1ccccc1 (stereo not drawn) [Compound 27, N-benzyl-N-hydroxy-2,2-dimethylbutanamide-3,4-d2]
mini-pig T1/2 (min) [1]: + | half-life [2, 13]: 19.8 min | Human T1/2 (min) ([3]; Hepatocyte stability): + | half-life [4, 14]: 1.5 min | pEC50 (ferroptosis): 5.00 to 6.00 | Dog T1/2 (min) ([5]; Hepatocyte stability): + | AUC (PK in rat; SD rat, PO 10 mg/kg): 0.0786 µg·h/mL | bioavailability (PK in rat; [15]): 5.29% | half-life (PK in rat; [15]): 55.2 min | half-life [6, 16]: 0.6 min | pEC50 (necrosis): 6.00 to 9.00 | Monkey T1/2 (min) ([7]; Hepatocyte stability): + | half-life [8, 17]: 26.5 min | half-life [9]: 178 min | mini-pig T1/2 (min) [10]: + | Mouse T1/2 (min) ([11]; Hepatocyte stability): + | Rat T1/2 (min) ([12]; Hepatocyte stability): +

[2H]CC([2H])C(C)(C)C(=O)N(O)Cc1cc(F)cc(F)c1 (stereo not drawn) [Compound 26, N-(3,5-difluorobenzyl)-N-hydroxy-2,2-dimethylbutanamide-3,4-d2]
half-life [2, 13]: 23.3 min | half-life ([3]; Hepatocyte stability): 110 min | half-life [4, 14]: 2.31 min | pEC50 (ferroptosis): 5.00 to 6.00 | half-life ([5]; Hepatocyte stability): 8.43 min | AUC (PK in rat; SD rat, PO, dose 60 mg/Kg micropower): 8.34 µg·h/mL | bioavailability (PK in rat; [18]): 74.1% | half-life (PK in rat; [18]): 171 min | half-life [6, 16]: 4.97 min | pEC50 (necrosis): 6.00 to 9.00 | half-life ([7]; Hepatocyte stability): 19.3 min | half-life [8, 17]: 21.1 min | half-life [9]: 136 min | mini-pig T1/2 (min) [10]: + | half-life ([11]; Hepatocyte stability): 21 min | half-life ([12]; Hepatocyte stability): 33.4 min

CCC(C)(C)C(=O)N(O)Cc1ccc(Cl)cc1 [Compound 15, N-(4-chlorobenzyl)-N-hydroxy-2,2-dimethylbutanamide]
mini-pig T1/2 (min) [1]: + | half-life [2, 13]: 41.1 min | Human T1/2 (min) ([3]; Hepatocyte stability): + | Dog T1/2 (min) [4, 19]: + | pEC50 (ferroptosis): 5.00 to 6.00 | Dog T1/2 (min) ([5]; Hepatocyte stability): + | AUC (PK in rat; SD rat, PO 10 mg/kg): 0.923 µg·h/mL | bioavailability (PK in rat; [15]): 20.3% | half-life (PK in rat; [15]): 293 min | Monkey T1/2 (min) [6, 19]: + | pEC50 (necrosis): 6.00 to 9.00 | Monkey T1/2 (min) ([7]; Hepatocyte stability): + | half-life [8, 17]: 16.6 min | half-life [9]: 96.8 min | mini-pig T1/2 (min) [10]: + | Mouse T1/2 (min) ([11]; Hepatocyte stability): + | Rat T1/2 (min) ([12]; Hepatocyte stability): +

[2H]C([2H])C([2H])([2H])C(C)(C)C(=O)N(O)Cc1ccccc1 [Compound 28, N-benzyl-N-hydroxy-2,2-dimethylbutanamide-3,3,4,4-d4]
mini-pig T1/2 (min) [1]: + | half-life [2, 13]: 28.6 min | Human T1/2 (min) ([3]; Hepatocyte stability): + | half-life [4, 14]: 3.5 min | pEC50 (ferroptosis): 5.00 to 6.00 | Dog T1/2 (min) ([5]; Hepatocyte stability): + | AUC (PK in rat; SD rat, PO 10 mg/kg): 0.318 µg·h/mL | bioavailability (PK in rat; [15]): 14.8% | half-life (PK in rat; [15]): 37 min | half-life [6, 16]: 3.3 min | pEC50 (necrosis): 6.00 to 9.00 | Monkey T1/2 (min) ([7]; Hepatocyte stability): + | half-life [8, 17]: 33.6 min | half-life [9]: 195 min | mini-pig T1/2 (min) [10]: + | Mouse T1/2 (min) ([11]; Hepatocyte stability): + | Rat T1/2 (min) ([12]; Hepatocyte stability): +

CCC(C)(C)C(=O)N(O)Cc1ccccc1 [Compound 92, reference compound]
half-life ([1]; minipig, hepatocytes, read-out: mini-pig T1/2): 23.1 min | half-life ([2]; comparison table with WO2016/101885 compounds, read-out: Rat Liver Microsome T1/2): 25 min | half-life [2, 13]: 25.1 min | half-life [3, 20]: 73 min | half-life ([3]; Hepatocyte stability): 73.1 min | half-life ([4]; comparison table with WO2016/101885 compounds, read-out: Dog Liver Microsome T1/2): 7 min | half-life [4, 14]: 7.1 min | half-life [5, 20]: 14 min | half-life ([5]; Hepatocyte stability): 13.9 min | AUC(0-inf) (PK in rat; Rat, IV 2 mg/kg): 0.52 µg·h/mL | clearance (PK in rat; Rat, IV 2 mg/kg): 3.84 L/h/kg | Vd (PK in rat; Rat, IV 2 mg/kg, read-out: Vdss): 1.2 L/kg | AUC(0-inf) (PK in rat; Rat, PO 10 mg/kg): 0.214 µg·h/mL | Cmax (PK in rat; Rat, PO 10 mg/kg): 0.148 µg/mL | AUC (PK in rat; SD rat, PO 10 mg/kg): 0.0299 µg·h/mL | half-life (PK in rat; iv, 2 mg/kg, IV 2 mg/kg): 18 min | bioavailability (PK in rat; po, 10 mg/kg, PO 10 mg/kg): 1.2% | half-life (PK in rat; po, 10 mg/kg, PO 10 mg/kg): 48 min | bioavailability (PK in rat; [15]): 1.15% | half-life (PK in rat; [15]): 38.4 min | EC50 (HT-29): 25 nM | half-life ([6]; comparison table with WO2016/101885 compounds, read-out: Monkey Liver Microsome T1/2): 3 min | half-life [6, 16]: 2.95 min | AUC(0-inf) (PK in monkey; IV 2 mg/kg): 1.94 µg·h/mL | clearance (PK in monkey; IV 2 mg/kg): 1.06 L/h/kg | half-life (PK in monkey; IV 2 mg/kg): 46.2 min | Vd (PK in monkey; IV 2 mg/kg, read-out: Vdss): 0.86 L/kg | AUC(0-inf) (PK in monkey; PO 10 mg/kg): 0.374 µg·h/mL | Cmax (PK in monkey; PO 10 mg/kg): 0.185 µg/mL | bioavailability (PK in monkey; PO 10 mg/kg): 2.6% | half-life (PK in monkey; PO 10 mg/kg): 43.8 min | half-life [7, 20]: 19 min | half-life ([7]; Hepatocyte stability): 18.9 min | AUC(0-inf) (PK in dog; IV 3 mg/kg): 1.96 µg·h/mL | clearance (PK in dog; IV 3 mg/kg): 1.54 L/h/kg | half-life (PK in dog; IV 3 mg/kg): 72 min | Vd (PK in dog; IV 3 mg/kg, read-out: Vdss): 1.24 L/kg | AUC(0-inf) (PK in dog; PO 10 mg/kg): 0.136 µg·h/mL | Cmax (PK in dog; PO 10 mg/kg): 0.171 µg/mL | bioavailability (PK in dog; PO 10 mg/kg): 1.95% | half-life (PK in dog; PO 10 mg/kg): 81 min | half-life ([8]; comparison table with WO2016/101885 compounds, read-out: Mouse Liver Microsome T1/2): 32 min | half-life [8, 17]: 32.5 min | half-life [9]: 204 min | half-life ([10]; minipig, liver microsomes, read-out: mini-pig T1/2): 53.5 min | half-life [11, 20]: 24 min | half-life ([11]; Hepatocyte stability): 24.4 min | half-life [12, 20]: 14 min | half-life ([12]; Hepatocyte stability): 14.2 min | AUC(0-inf) (PK in mouse; IV 2 mg/kg): 0.323 µg·h/mL | clearance (PK in mouse; IV 2 mg/kg): 6.18 L/h/kg | half-life (PK in mouse; IV 2 mg/kg): 186 min | Vd (PK in mouse; IV 2 mg/kg, read-out: Vdss): 3.08 L/kg | AUC(0-inf) (PK in mouse; PO 10 mg/kg): 0.349 µg·h/mL | Cmax (PK in mouse; PO 10 mg/kg): 0.249 µg/mL | bioavailability (PK in mouse; PO 10 mg/kg): 21.6% | half-life (PK in mouse; PO 10 mg/kg): 96 min

C=CC(C)(C)C(=O)N(O)Cc1ccccc1 [Compound 19, N-benzyl-N-hydroxy-2,2-dimethylbut-3-enamide]
mini-pig T1/2 (min) [1]: + | half-life [2, 13]: 28.9 min | Human T1/2 (min) ([3]; Hepatocyte stability): + | half-life [4, 14]: 6 min | pEC50 (ferroptosis): 5.00 to 6.00 | Dog T1/2 (min) ([5]; Hepatocyte stability): + | half-life [6, 16]: 0.3 min | pEC50 (necrosis): 6.00 to 9.00 | Monkey T1/2 (min) ([7]; Hepatocyte stability): + | half-life [8, 17]: 25.4 min | half-life [9]: 154 min | mini-pig T1/2 (min) [10]: + | Mouse T1/2 (min) ([11]; Hepatocyte stability): + | Rat T1/2 (min) ([12]; Hepatocyte stability): +
